# Experiment: Mouse Liver Microsome stability assay
# Format: in vitro ADME
# Details: mouse liver microsomes
row,Compound,WuXi Microsomal stability (Mouse Extraction Ratio)
1,COc1cc(C)c(-c2ccccc2)cc1Nc1ncnc2[nH]nc(-c3cc[nH]n3)c12 [compound 8134],0.7
2,CN(C)c1ccc(-c2ccccc2)cc1Nc1ncnc2[nH]nc(-c3cc[nH]n3)c12 [compound 8164],0.9
3,COc1ccc(-c2ccccc2F)cc1Nc1ncnc2[nH]nc(-c3cc[nH]n3)c12 [8168A],0.8
4,COc1ncc(-c2ccccc2)cc1Nc1ncnc2[nH]nc(-c3cc[nH]n3)c12 [compound 8177],0.8

# Other lines, results leading:
row,WuXi Microsomal stability (Mouse Extraction Ratio),Compound
1,0.8,COc1ccc(-c2ncccn2)cc1Nc1ncnc2[nH]nc(-c3cc[nH]n3)c12 [compound 8185]
2,0.7,COc1ccc(-c2ccccc2)cc1Nc1ncnc2[nH]nc(-c3n[nH]cc3C)c12 [compound 8186]
